Laboratory results published in ChEMBL document CHEMBL1909046, “DrugMatrix in vitro pharmacology data”.
pIC50, pKi: −log10 of the molar value.

Tests used:
[1] = DRUGMATRIX: Calcium Channel Type L, Benzothiazepine radioligand binding (ligand: [3H] Diltiazem); format: cell membranes, Rattus norvegicus, Wistar, Brain, Membrane; details: Not Active = under 50% inhibition at 10 µM
Carbonic anhydrase 2 = Carbonic anhydrase 2 (Homo sapiens, UniProt P00918); assay: DRUGMATRIX: Carbonic Anhydrase II enzyme inhibition (substrate: 4-Nitrophenyl acetate (4-NPA)); format: tissue-based, Erythrocyte; details: erythrocyte; Not Active = under 50% inhibition at 10 µM
Cytochrome P450 2A6 = target: T1, Cytochrome P450 2A6 (Homo sapiens, UniProt P11509); details: bti-tn-5b1-4; further: in other assays of this panel Not Active means under 50% inhibition at 10 µM
T1 sequence (P11509 whole entry): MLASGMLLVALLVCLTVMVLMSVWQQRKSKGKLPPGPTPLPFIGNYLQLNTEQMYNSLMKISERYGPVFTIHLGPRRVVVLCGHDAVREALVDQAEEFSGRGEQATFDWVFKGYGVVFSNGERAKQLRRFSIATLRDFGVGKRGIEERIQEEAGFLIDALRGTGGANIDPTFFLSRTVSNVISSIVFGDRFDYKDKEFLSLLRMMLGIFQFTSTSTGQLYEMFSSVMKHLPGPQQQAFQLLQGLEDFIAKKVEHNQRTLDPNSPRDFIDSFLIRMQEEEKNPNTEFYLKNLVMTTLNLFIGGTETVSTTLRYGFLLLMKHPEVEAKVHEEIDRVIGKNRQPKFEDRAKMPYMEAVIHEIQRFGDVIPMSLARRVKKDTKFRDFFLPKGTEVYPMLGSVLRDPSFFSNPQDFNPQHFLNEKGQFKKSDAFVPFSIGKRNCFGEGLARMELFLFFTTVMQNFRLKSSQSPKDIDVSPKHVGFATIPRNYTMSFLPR

[2] = target: Matrix metalloproteinase-9 (Homo sapiens, UniProt P14780); assay: biochemical; format: cell-based;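 further: inhibition of isolated MMP-9 enzyme activity toward a synthetic peptide substrate, from the DrugMatrix protease screening panel; in other assays of this panel Not Active means under 50% inhibition at 10 µM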
Chain of Matrix metalloproteinase-9 (P14780 whole entry): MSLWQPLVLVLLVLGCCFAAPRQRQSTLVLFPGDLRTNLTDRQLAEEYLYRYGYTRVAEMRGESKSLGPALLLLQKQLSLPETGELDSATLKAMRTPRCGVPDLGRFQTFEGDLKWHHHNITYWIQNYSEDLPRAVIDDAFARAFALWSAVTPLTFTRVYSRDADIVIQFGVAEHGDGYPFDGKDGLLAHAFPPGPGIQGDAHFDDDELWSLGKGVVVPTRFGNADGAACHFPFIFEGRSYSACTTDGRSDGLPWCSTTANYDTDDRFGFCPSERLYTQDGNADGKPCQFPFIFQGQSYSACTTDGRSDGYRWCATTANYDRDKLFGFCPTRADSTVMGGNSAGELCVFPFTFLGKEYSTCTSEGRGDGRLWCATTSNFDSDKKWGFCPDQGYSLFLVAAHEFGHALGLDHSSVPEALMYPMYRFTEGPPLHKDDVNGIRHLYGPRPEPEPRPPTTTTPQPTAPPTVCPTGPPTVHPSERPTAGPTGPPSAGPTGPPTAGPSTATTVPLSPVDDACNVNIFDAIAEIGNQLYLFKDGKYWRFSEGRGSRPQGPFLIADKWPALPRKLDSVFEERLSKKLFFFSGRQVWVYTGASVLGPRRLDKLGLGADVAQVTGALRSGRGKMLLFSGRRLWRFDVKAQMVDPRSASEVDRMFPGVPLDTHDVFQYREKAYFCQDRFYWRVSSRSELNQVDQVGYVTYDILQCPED

Estrogen receptor = target: T2, Estrogen receptor (Homo sapiens, UniProt P03372); details: sf9; further: in other assays of this panel Not Active means under 50% inhibition at 10 µM
T2 sequence (P03372 whole entry): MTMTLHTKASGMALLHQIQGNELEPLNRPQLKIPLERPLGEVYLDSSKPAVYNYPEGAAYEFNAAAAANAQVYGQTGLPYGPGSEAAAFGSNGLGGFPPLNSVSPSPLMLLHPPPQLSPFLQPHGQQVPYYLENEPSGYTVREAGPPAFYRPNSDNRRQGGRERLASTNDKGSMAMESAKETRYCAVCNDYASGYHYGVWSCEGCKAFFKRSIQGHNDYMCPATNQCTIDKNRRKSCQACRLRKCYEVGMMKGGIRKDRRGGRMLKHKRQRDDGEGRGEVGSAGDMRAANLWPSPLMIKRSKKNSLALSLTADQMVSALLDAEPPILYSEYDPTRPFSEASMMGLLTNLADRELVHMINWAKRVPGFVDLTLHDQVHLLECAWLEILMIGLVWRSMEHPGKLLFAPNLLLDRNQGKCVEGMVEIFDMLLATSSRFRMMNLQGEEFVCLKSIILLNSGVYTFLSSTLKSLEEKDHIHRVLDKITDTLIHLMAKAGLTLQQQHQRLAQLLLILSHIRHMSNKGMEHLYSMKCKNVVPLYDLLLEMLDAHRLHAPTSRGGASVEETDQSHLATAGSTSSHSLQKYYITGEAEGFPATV

Glucocorticoid receptor = target: T3, Glucocorticoid receptor (Homo sapiens, UniProt P04150); details: hela s3; further: in other assays of this panel Not Active means under 50% inhibition at 10 µM
T3 sequence (P04150 whole entry): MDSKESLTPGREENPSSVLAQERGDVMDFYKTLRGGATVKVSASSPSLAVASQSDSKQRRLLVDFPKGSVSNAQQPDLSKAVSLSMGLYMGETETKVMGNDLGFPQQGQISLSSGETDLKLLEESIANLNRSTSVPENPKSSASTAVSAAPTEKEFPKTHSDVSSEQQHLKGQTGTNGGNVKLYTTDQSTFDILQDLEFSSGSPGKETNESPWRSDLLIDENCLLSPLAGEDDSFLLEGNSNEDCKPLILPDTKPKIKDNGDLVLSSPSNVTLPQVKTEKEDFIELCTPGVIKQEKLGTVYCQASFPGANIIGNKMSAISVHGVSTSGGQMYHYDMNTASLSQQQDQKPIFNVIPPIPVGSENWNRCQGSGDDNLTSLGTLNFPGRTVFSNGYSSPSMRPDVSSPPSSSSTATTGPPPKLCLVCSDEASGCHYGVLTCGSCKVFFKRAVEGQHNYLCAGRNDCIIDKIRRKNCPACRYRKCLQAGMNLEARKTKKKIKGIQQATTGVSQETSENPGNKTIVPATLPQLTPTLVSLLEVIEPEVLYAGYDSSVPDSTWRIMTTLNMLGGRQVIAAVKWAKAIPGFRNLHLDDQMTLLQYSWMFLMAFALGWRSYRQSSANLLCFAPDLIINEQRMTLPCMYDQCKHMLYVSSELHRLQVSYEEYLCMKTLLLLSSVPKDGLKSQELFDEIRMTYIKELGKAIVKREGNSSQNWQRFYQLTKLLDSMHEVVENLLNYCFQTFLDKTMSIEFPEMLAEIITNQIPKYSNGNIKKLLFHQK

[3] = DRUGMATRIX: GABAA, Flunitrazepam, Central radioligand binding (ligand: [3H] Flunitrazepam); format: cell membranes, Rattus norvegicus, Wistar, Brain, Membrane; details: Not Active = under 50% inhibition at 10 µM
Cytochrome P450 2D6 = Cytochrome P450 2D6 (Homo sapiens, UniProt P10635); details: bti-tn-5b1-4; further: in other assays of this panel Not Active means under 50% inhibition at 10 µM
Chain of Cytochrome P450 2D6 (P10635 whole entry): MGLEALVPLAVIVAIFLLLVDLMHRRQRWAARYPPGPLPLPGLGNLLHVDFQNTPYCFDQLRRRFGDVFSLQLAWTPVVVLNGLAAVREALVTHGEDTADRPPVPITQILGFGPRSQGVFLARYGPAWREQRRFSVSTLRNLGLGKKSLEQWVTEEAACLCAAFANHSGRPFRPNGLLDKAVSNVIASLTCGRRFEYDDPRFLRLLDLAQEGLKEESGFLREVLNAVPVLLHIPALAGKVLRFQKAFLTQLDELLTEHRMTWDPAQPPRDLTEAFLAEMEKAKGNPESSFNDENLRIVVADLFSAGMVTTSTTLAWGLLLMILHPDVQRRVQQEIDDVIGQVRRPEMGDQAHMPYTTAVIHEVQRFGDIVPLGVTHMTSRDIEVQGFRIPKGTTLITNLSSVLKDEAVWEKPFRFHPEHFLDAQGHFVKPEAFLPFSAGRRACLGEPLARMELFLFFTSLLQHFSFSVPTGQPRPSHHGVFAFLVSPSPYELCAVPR

[4] = target: T4, Muscarinic acetylcholine receptor M2 (Homo sapiens, UniProt P08172); format: cell membranes, CHO-K1, Membrane; details: cho-k1; further: in other assays of this panel Not Active means under 50% inhibition at 10 µM
T4 sequence (P08172 whole entry): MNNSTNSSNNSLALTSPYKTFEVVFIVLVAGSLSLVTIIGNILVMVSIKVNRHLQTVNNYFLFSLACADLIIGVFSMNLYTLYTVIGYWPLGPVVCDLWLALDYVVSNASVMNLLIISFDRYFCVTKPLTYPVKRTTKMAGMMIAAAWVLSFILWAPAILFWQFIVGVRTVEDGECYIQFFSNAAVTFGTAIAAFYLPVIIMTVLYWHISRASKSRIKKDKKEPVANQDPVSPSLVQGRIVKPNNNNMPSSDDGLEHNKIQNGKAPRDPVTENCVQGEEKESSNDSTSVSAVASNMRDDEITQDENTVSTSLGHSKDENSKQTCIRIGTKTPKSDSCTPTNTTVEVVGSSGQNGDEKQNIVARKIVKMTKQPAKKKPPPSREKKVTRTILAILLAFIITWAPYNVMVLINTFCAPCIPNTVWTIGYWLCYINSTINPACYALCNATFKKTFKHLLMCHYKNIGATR

| SMILES | IC50 [1] | Ki [1] | IC50 (Carbonic anhydrase 2) | IC50 (Cytochrome P450 2A6) | Ki (Cytochrome P450 2A6) | IC50 [2] | IC50 (Estrogen receptor) | IC50 (Glucocorticoid receptor) | IC50 [3] | Ki [3] | IC50 (Cytochrome P450 2D6) | Ki (Cytochrome P450 2D6) | IC50 [4] | pIC50 ([1]; read-out: IC50) | pKi ([1]; read-out: Ki) |
| --- | --- | --- | --- | --- | --- | --- | --- | --- | --- | --- | --- | --- | --- | --- | --- |
| CC(=O)N[C@@H]1[C@H](Oc2c3cc4cc2Oc2ccc(cc2Cl)[C@@H](O[C@@H]2O[C@@H](CO)[C@@H](O)[C@H](O)[C@@H]2NC(C)=O)[C@@H]2NC(=O)[C@H](NC(=O)[C@@H]4NC(=O)[C@H]4NC(=O)[C@@H](Cc5ccc(c(Cl)c5)O3)NC(=O)[C@H](N)c3ccc(O)c(c3)Oc3cc(O)cc4c3)c3ccc(O)c(c3)-c3c(O[C@H]4O[C@H](CO)[C@@H](O)[C@@H](O)[C@@H]4O)cc(O)cc3[C@@H](C(=O)O)NC2=O)O[C@@H](CO)[C@@H](O)[C@@H]1O | Not Active | Not Active | Not Active | Not Active | Not Active | Not Active | Not Active | Not Active | Not Active | Not Active | Not Active | Not Active | Not Active |  |  |
| CNC(=C[N+](=O)[O-])NCCSCc1ccc(CN(C)C)o1 [RANITIDINE] | Not Active | Not Active | Not Active | Not Active | Not Active | Not Active | Not Active | Not Active | Not Active | Not Active | Not Active | Not Active | Not Active |  |  |
| CO[C@H]1/C=C/O[C@@]2(C)Oc3c(C)c(O)c4c(c3C2=O)C2=NC3(CCN(CC(C)C)CC3)NC2=C(NC(=O)/C(C)=C\C=C\[C@H](C)[C@H](O)[C@@H](C)[C@@H](O)[C@@H](C)[C@H](OC(C)=O)[C@@H]1C)C4=O [RIFABUTIN] | Not Active | Not Active | Not Active | Not Active | Not Active | Not Active | Not Active | Not Active | Not Active | Not Active | Not Active | Not Active | Not Active |  |  |
| [H]/N=C(/N)N[C@H]1[C@H](O)[C@@H](O)[C@H](O[C@@H]2O[C@@H](C)[C@](O)(C=O)[C@H]2O[C@@H]2O[C@@H](CO)[C@H](O)[C@@H](O)[C@@H]2NC)[C@@H](N/C(N)=N\[H])[C@@H]1O [STREPTOMYCIN] | Not Active | Not Active | Not Active | Not Active | Not Active | Not Active | Not Active | Not Active | Not Active | Not Active | Not Active | Not Active | Not Active |  |  |
| COc1cc(NS(=O)(=O)c2ccc(N)cc2)nc(OC)n1 [SULFADIMETHOXINE] | Not Active | Not Active | Not Active | Not Active | Not Active | Not Active | Not Active | Not Active | Not Active | Not Active | Not Active | Not Active | Not Active |  |  |
| C[C@]1(Cn2ccnn2)[C@H](C(=O)O)N2C(=O)C[C@H]2S1(=O)=O [TAZOBACTAM] | Not Active | Not Active | Not Active | Not Active | Not Active | Not Active | Not Active | Not Active | Not Active | Not Active | Not Active | Not Active | Not Active |  |  |
| CN1C(C(=O)Nc2ccccn2)=C(O)c2sccc2S1(=O)=O [TENOXICAM] | Not Active | Not Active | Not Active | Not Active | Not Active | Not Active | Not Active | Not Active | Not Active | Not Active | Not Active | Not Active | Not Active |  |  |
| CC(C)(C)c1ccc(C(O)CCCN2CCC(C(O)(c3ccccc3)c3ccccc3)CC2)cc1 (stereo unspecified) [TERFENADINE] |  |  | Not Active | Not Active | Not Active | Not Active | Not Active | Not Active | Not Active | Not Active | Not Active | Not Active | Not Active | 6.65 | 6.70 |
| Cc1cccc(Nc2ccncc2S(=O)(=O)NC(=O)NC(C)C)c1 [TORSEMIDE] | Not Active | Not Active | Not Active | Not Active | Not Active | Not Active | Not Active | Not Active | Not Active | Not Active | Not Active | Not Active | Not Active |  |  |
| CC(C)C[C@H](NC(=O)[C@@H](O)[C@H](N)Cc1ccccc1)C(=O)O [UBENIMEX] | Not Active | Not Active | Not Active | Not Active | Not Active | Not Active | Not Active | Not Active | Not Active | Not Active | Not Active | Not Active | Not Active |  |  |
| CC[C@]1(O)C[C@@H]2CN(CCc3c([nH]c4ccccc34)[C@@](C(=O)OC)(c3cc4c(cc3OC)N(C)[C@H]3[C@@](O)(C(=O)OC)[C@H](OC(C)=O)[C@]5(CC)C=CCN6CC[C@]43[C@@H]65)C2)C1 [VINBLASTINE] | Not Active | Not Active | Not Active | Not Active | Not Active | Not Active | Not Active | Not Active | Not Active | Not Active | Not Active | Not Active | Not Active |  |  |
| C[C@@H](N)[C@H]1CC[C@H](C(=O)Nc2ccncc2)CC1 [Y-27632] | Not Active | Not Active | Not Active | Not Active | Not Active | Not Active | Not Active | Not Active | Not Active | Not Active | Not Active | Not Active | Not Active |  |  |
